# Assays:
# Format in all cases: in vivo
# Boophilus microplus = Boophilus microplus injection test; settings: 20 μg/animal injected; adult engorged female ticks; after 7 days
# Procedure: Boophilus microplus—Injection Test
# (§1) Solvent: dimethyl sulfoxide
# To produce a suitable preparation of active compound, 10 mg of active compound are dissolved in 0.5 ml solvent, and the concentrate is diluted with solvent to the desired concentration.
# Five adult engorged female ticks (Boophilus microplus) are injected with 1 μl compound solution into the abdomen. The ticks are transferred into replica plates and incubated in a climate chamber.
# After 7 days egg deposition of fertile eggs is monitored. Eggs where fertility is not visible are stored in a climate chamber till hatching after about 42 days. An efficacy of 100% means all eggs are infertile; 0% means all eggs are fertile.
# Ctenocephalides felis [1] = experiment: whole plant or invertebrate; settings: po, 48 h
# Procedure: Ctenocephalides felis—Oral Test
# as §1
# To produce a suitable preparation of active compound, 10 mg of active compound are dissolved in 0.5 ml solvent, and the concentrate is diluted with cattle blood to the desired concentration.
# Approximately 20 adult unfed cat fleas (Ctenocephalides felis) are placed in flea chambers. The blood chamber, sealed with parafilm on the bottom, are filled with cattle blood supplied with compound solution and placed on the gauze covered top of the flea chamber, so that the fleas are able to suck the blood. The blood chamber is heated to 37° C. whereas the flea chamber is kept at room temperature.
# After 2 days mortality in % is determined. 100% means all the fleas have been killed; 0% means none of the fleas have been killed.
# Haemonchus contortus = Haemonchus contortus test; settings: for larval mortality (efficacy): 20 ppm, larvae, after 5 days
# Procedure: Haemonchus contortus—Test
# as §1
# To produce a suitable preparation of active compound, 10 mg of active compound are dissolved in 0.5 ml solvent, and the concentrate is diluted with “Ringer's solution” to the desired concentration.
# Approximately 40 larvae of the red stomach worm (Haemonchus contortus) are transferred into a test tube containing compound solution.
# After 5 days the percentage of larval mortality is recorded. 100% efficacy means all larvae are killed, 0% efficacy means no larvae are killed.
# Meloidogyne incognita = Meloidogyne incognita test; settings: 20 ppm; eggs and larvae, salad seeds in sand; after 14 days
# Procedure: Meloidogyne incognita—Test
# Solvent: 125.0 parts by weight of acetone
# To produce a suitable preparation of active compound, 1 part by weight of active compound is mixed with the stated amount of solvent, and the concentrate is diluted with water to the desired concentration.
# Vessels are filled with sand, a solution of the active ingredient, a suspension containing eggs and larvae of the southern root-knot nematode (Meloidogyne incognita) and salad seeds. The salad seeds germinate and the seedlings grow. Galls develop in the roots.
# After 14 days the nematicidal activity is determined on the basis of the percentage of gall formation. 100% means no galls were found and 0% means the number of galls found on the roots of the treated plants was equal to that in untreated control plants.
# Phaedon cochleariae = Phaedon cochleariae spray test; settings: foliar, 168 h, Chinese cabbage leaf disks, larvae, after 7 days
# Procedure: Phaedon cochleariae—Spray Test
# (§2) Solvent: 78.0 parts by weight of acetone • • 1.5 parts by weight of dimethylformamide
# (§3) Emulsifier: alkylarylpolyglycol ether
# (§4) To produce a suitable preparation of active compound, 1 part by weight of active compound is mixed with the stated amount of solvents and is diluted with water, containing an emulsifier concentration of 1000 ppm, to the desired concentration. Further test concentrations are prepared by dilution with emulsifier containing water.
# Chinese cabbage (Brassica pekinensis) leaf disks are sprayed with a preparation of the active ingredient of the desired concentration. Once dry, the leaf disks are infested with mustard beetle larvae (Phaedon cochleariae).
# After 7 days mortality in % is determined. 100% means all beetle larvae have been killed and 0% means none of the beetle larvae have been killed.
# Tetranychus urticae = Tetranychus urticae spray test OP-resistant; settings: foliar, 144 h, French bean leaf disks, all instars, after 6 days
# Procedure: Tetranychus urticae—Spray Test OP-Resistant
# (§5) Solvent: 78.0 parts by weight acetone • 1.5 parts by weight dimethylformamide
# as §3, §4
# French bean (Phaseolus vulgaris) leaf disks infected with all instars of the two spotted spidermite (Tetranychus urticae), are sprayed with a preparation of the active ingredient of the desired concentration.
# After 6 days mortality in % is determined. 100% means all spider mites have been killed and 0% means none of the spider mites have been killed.
# Nezara viridula = Nezara viridula spray test (solvent 52.5 acetone / 7 dimethylformamide); settings: 96 h, barley plants, larvae, after 4 days
# Procedure: Nezara viridula—Spray Test
# (§6) Solvent: 52.5 parts by weight of acetone • 7 parts by weight of dimethylformamide
# (§7) Emulsifier: alkylaryl polyglycolether
# (§8) To produce a suitable preparation of active compound, 1 part by weight of active compound is mixed with the stated amount of solvent, and the concentrate is diluted with water, containing an emulsifier concentration of 1000 ppm, to the desired concentration. Ammonium salt and/or penetration enhancer in a dosage of 1000 ppm are added to the desired concentration if necessary.
# Barley plants (Hordeum vulgare) infested with larvae of the southern green stink bug (Nezara viridula) are sprayed with a test solution containing the desired concentration of the active ingredient.
# After 4 days mortality in % is determined. 100% means all the stink bugs have been killed; 0% means none of the stink bugs have been killed.
# Lucilia cuprina = experiment: whole plant or invertebrate; settings: 48 h
# Procedure: as §1
# 10 mg active compound are dissolved in 0.5 ml Dimethylsulfoxid. Serial dilutions are made to obtain the desired rates.
# Approximately 20 1st instar larvae of the Australian sheep blowfly (Lucilia cuprina) are transferred into a test tube containing minced horse meat and compound solution of the desired concentration.
# After 2 days mortality in % is determined. 100% means all the larvae have been killed; 0% means none of the larvae have been killed.
# Ctenocephalides felis [2] = experiment: Ctenocephalides felis in-vitro contact test, adult cat flea; settings: 5 μg/cm^2 (=500 g/ha), after 48 hours
# Procedure: Ctenocephalides felis—In-Vitro Contact Tests Adult Cat Flea
# 9 mg compound is solved in 1 ml acetone and diluted with acetone to the desired concentration. 250 μl of the test solution is filled in 25 ml glass test tubes and homogeneously distributed on the inner walls by rotation and tilting on a shaking device (2 h at 30 rpm). With a compound concentration of 900 ppm, an inner surface of 44.7 cm^2 and a homogeneous distribution, a dose of 5 μg/cm^2 is achieved.
# After the solvent has evaporated, each test tube is filled with 5-10 adult cat fleas (Ctenocephalides felis), closed with a perforated lid and incubated in a lying position at room temperature and relative humidity. After 48 hours efficacy is determined. The fleas are patted on the ground of the tubes and are incubated on a heating plate at 45-50° C. for at most 5 minutes. Immotile or uncoordinated moving fleas, which are not able to escape the heat by climbing upwards, are marked as dead or moribund.
# An efficacy of 100% means all fleas are dead or moribund; 0% means no fleas are dead or moribund.
# Diabrotica balteata = Diabrotica balteata spray test; settings: 160 μg/well; germinated wheat seeds, larvae; after 7 days
# Procedure: Diabrotica Balteata—Spray Test
# as §2, §3
# as §4, with “solvent,” for “solvents”, “and the concentrate” for “and”
# Soaked wheat seeds (Triticum aestivum) are placed in a multiple well plate filled with agar and some water and are incubated for 1 day to germinate (5 seeds per well). The germinated wheat seeds are sprayed with a test solution containing the desired concentration of the active ingredient. Afterwards each unit is infected with 10-20 larvae of the banded cucumber beetle (Diabrotica balteata).
# After 7 days efficacy in % is determined. 100% means all the seedlings have grown up like in the untreated, uninfected control; 0% means none of the seedlings have grown.
# Myzus persicae = Myzus persicae spray test; settings: foliar, Chinese cabbage leaf disks, all instars, after 5-6 days
# Procedure: Myzus persicae—Spray Test
# as §5, §3, §4
# Chinese cabbage (Brassica pekinensis) leaf disks infected with all instars of the green peach aphid (Myzus persicae), are sprayed with a preparation of the active ingredient of the desired concentration.
# After 5-6 days mortality in % is determined. 100% means all aphids have been killed and 0% means none of the aphids have been killed.
# Nilaparvata lugens = Nilaparvata lugens spray test (solvent 52.5 acetone / 7 dimethylformamide); settings: 96 h, rice plants, larvae, after 4 days
# Procedure: Nilaparvata lugens—Spray Test
# as §6, §7
# as §8, with “solvents” for “solvent,”, “and” for “and the concentrate”, “concentration. Further test concentrations are prepared by dilution with emulsifier containing water.” for “concentration.”
# Rice plants (Oryza sativa) are treated by being sprayed with the desired concentration of the active compound and are infested with larvae of the brown planthopper (Nilaparvata lugens).
# After 4 days mortality in % is determined. 100% means all planthoppers have been killed and 0% means none of the planthoppers have been killed.
# Plutella xylostella = Plutella xylostella spray test; settings: 100 ppm; cabbage leaves, larvae; after 7 days
# Procedure: Plutella xylostella—Spray Test
# Solvent: 14 parts by weight of dimethylformamide
# Emulsifier: alkylaryl polyglycol ether
# as §4, with “solvent” for “solvents”
# Cabbage leaves (Brassica oleracea) are treated by being sprayed with the preparation of the active compound of the desired concentration and are infested with larvae of the diamondback moth (Plutella xylostella).
# After 7 days, mortality in % is determined. 100% means all the caterpillars have been killed and 0% means none of the caterpillars have been killed.
# Musca domestica = Musca domestica test; settings: 100 ppm; adult house flies; after 2 days
# Procedure: as §1
# To produce a suitable preparation of active compound, 10 mg of active compound are dissolved in 0.5 ml solvent, and the concentrate is diluted with water to the desired concentration.
# 10 adult house flies (Musca domestica) are transferred into a container, containing a sponge soaked with a mixture of sugar solution and compound solution of the desired concentration.
# After 2 days mortality in % is determined. 100% means all the flies have been killed; 0% means none of the flies have been killed.
structure (smiles),measurement,setting,value
"O=C(Nc1nc(-c2c(F)cccc2F)ns1)c1c(F)cccc1F [Compound I-1-1, N-[3-(2,6-difluorophenyl)-1,2,4-thiadiazol-5-yl]-2,6-difluorobenzamide]",efficacy (infertile eggs),Boophilus microplus,100%
same,mortality at 100 ppm,Ctenocephalides felis [1],95%
same,mortality at 20 ppm,"Haemonchus contortus; Haemonchus contortus, 120 h, read-out: larval mortality (efficacy)",80%
same,nematicidal activity (gall formation),Meloidogyne incognita,90%
same,mortality at 500 g/ha,Phaedon cochleariae,≥ 80%
same,mortality at 500 g/ha,Tetranychus urticae,≥ 70%
same,mortality at 500 g/ha,Nezara viridula,≥ 90%
O=C(Nc1nc(-c2c(F)cccc2F)ns1)c1ccccc1F [Compound I-1-2],larval mortality (efficacy),Haemonchus contortus,100%
same,nematicidal activity (gall formation),Meloidogyne incognita,100%
"O=C(Nc1nc(-c2c(F)cccc2F)ns1)c1ccccc1Br [Compound I-1-5, 2-Bromo-N-[3-(2,6-difluorophenyl)-1,2,4-thiadiazol-5-yl]benzamide]",efficacy (infertile eggs),Boophilus microplus,100%
same,mortality at 100 ppm,Lucilia cuprina,70 to 100%
same,nematicidal activity (gall formation),Meloidogyne incognita,90%
same,mortality at 500 g/ha,Phaedon cochleariae,≥ 80%
same,mortality at 500 g/ha,Tetranychus urticae,≥ 70%
"O=C(Nc1nc(-c2c(F)cccc2F)ns1)c1cccnc1C(F)(F)F [Compound I-1-6, N-[3-(2,6-difluorophenyl)-1,2,4-thiadiazol-5-yl]-2-(trifluoromethyl)nicotinamide]",efficacy (fleas dead or moribund),Ctenocephalides felis [2],100%
same,efficacy (infertile eggs),Boophilus microplus,100%
same,mortality at 100 ppm,Ctenocephalides felis [1],100%
same,mortality at 100 ppm,Lucilia cuprina,100%
same,efficacy (seedling growth),Diabrotica balteata,80%
same,nematicidal activity (gall formation),Meloidogyne incognita,100%
same,mortality at 500 g/ha,Myzus persicae,≥ 70%
same,mortality at 500 g/ha,Nilaparvata lugens,≥ 80%
O=C(Nc1nc(-c2c(F)cccc2F)ns1)c1ccccc1[N+](=O)[O-] [Compound I-1-10],nematicidal activity (gall formation),Meloidogyne incognita,100%
same,mortality,Plutella xylostella,100%
O=C(Nc1nc(-c2c(F)cccc2F)ns1)c1cccc(F)c1C(F)(F)F [Compound I-1-11],efficacy (infertile eggs),Boophilus microplus,100%
same,mortality,Plutella xylostella,100%
O=C(Nc1nc(-c2c(F)cccc2F)ns1)c1c(F)cccc1C(F)(F)F [Compound I-1-12],efficacy (infertile eggs),Boophilus microplus,100%
same,nematicidal activity (gall formation),Meloidogyne incognita,100%
same,mortality,Plutella xylostella,100%
O=C(Nc1nc(-c2ccc(F)cc2F)ns1)c1cccnc1C(F)(F)F [Compound I-1-56],larval mortality (efficacy),Haemonchus contortus,80%
O=C(Nc1nc(-c2ccccc2F)ns1)c1cccnc1C(F)(F)F [Compound I-1-57],efficacy (infertile eggs),Boophilus microplus,100%
same,mortality,Musca domestica,100%
same,efficacy (seedling growth),Diabrotica balteata,100%
"O=C(Nc1nc(-c2c(C(F)(F)F)cccc2C(F)(F)F)ns1)c1cccnc1C(F)(F)F [Compound I-1-65, N-{3-[2,6-Bis(trifluoromethyl)phenyl]-1,2,4-thiadiazol-5-yl}-2-(trifluoromethyl)nicotinamide]",mortality at 500 g/ha,Nezara viridula,≥ 90%
same,mortality at 500 g/ha,Nilaparvata lugens,≥ 80%
"O=C(Nc1nc(-c2ncc(C(F)(F)F)cc2Cl)ns1)c1cccnc1C(F)(F)F [Compound I-2-3, N-{3-[3-Chloro-5-(trifluoromethyl)pyridin-2-yl]-1,2,4-thiadiazol-5-yl}-2-(trifluoromethyl)nicotinamide]",mortality at 500 g/ha,Myzus persicae,≥ 70%
same,mortality at 500 g/ha,Phaedon cochleariae,≥ 80%
"O=C(Nc1nc(-c2ncccc2Cl)ns1)c1ccccc1Cl [Compound I-2-6, 2-Chloro-N-[3-(3-chloropyridin-2-yl)-1,2,4-thiadiazol-5-yl]benzamide]",mortality at 500 g/ha,Phaedon cochleariae,≥ 80%
same,mortality at 500 g/ha,Tetranychus urticae,≥ 70%
same,mortality at 500 g/ha,Nilaparvata lugens,≥ 80%
